20 compounds from paper PMC6980356 (Bioorganic & medicinal chemistry letters, 2014) can be followed below.

Experiment [1] has as its target T1, hTRPV1 (Homo sapiens, UniProt Q8NER1). Kind of experiment: FLIPR inhibition of TRPV1 activation by capsaicin. In kind it is cell-based. The conditions noted are these: for antagonism toward capsaicin (in words): capsaicin 100 nM, hTRPV1 in CHO cells.
For experiment [2], the target named is T1, hTRPV1. Put plainly: hTRPV1 antagonism toward pH activation. In kind it is cell-based. The conditions noted are these: activator pH.
Experiment [3] has as its target T1, hTRPV1. Kind of experiment: hTRPV1 antagonism toward NADA activation. The format is cell-based. The conditions noted are these: activator NADA.
Experiment [4] concerns CCI-induced cold allodynia. Put plainly: Mouse chronic constriction injury. In kind it is in vivo. The conditions noted are these: mouse CCI model, po.
Experiment [5] deals with T1, hTRPV1. Put plainly: hTRPV1 antagonism toward heat. The format is cell-based.

pIC50: −log10 of the molar value.

T1 sequence (Q8NER1 whole entry): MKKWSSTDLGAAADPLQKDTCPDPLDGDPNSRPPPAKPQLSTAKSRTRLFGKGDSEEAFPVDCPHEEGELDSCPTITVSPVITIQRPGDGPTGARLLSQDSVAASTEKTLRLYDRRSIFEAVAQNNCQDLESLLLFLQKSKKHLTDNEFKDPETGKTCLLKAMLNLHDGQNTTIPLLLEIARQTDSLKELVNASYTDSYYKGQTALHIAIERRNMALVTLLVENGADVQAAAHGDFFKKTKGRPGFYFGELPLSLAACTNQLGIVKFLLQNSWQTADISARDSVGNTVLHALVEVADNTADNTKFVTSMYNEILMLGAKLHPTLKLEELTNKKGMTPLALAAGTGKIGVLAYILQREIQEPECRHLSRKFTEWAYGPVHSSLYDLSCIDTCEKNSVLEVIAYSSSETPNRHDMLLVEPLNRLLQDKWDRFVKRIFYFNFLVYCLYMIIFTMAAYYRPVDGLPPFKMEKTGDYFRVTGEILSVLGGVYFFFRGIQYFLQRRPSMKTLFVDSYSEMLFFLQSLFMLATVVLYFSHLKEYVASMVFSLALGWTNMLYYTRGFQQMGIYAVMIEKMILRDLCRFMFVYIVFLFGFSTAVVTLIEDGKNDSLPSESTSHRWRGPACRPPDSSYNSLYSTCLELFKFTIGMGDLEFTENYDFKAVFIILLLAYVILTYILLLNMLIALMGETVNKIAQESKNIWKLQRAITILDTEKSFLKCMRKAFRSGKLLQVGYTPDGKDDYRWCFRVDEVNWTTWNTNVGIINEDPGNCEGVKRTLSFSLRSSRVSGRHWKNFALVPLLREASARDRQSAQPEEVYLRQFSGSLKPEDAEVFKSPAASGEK

In the case of `CC(C(=O)NCc1ccc(C(F)(F)F)nc1-c1ccccc1)c1ccc(NS(C)(=O)=O)c(F)c1` (stereo not drawn) [Compound 8], the “fold less potent than the 2-cyclohexyl derivative” value at hTRPV1 [1] (Ki(CAP) relative to 2-cyclohexyl derivative) was “ca. 10 fold”. Further, the “antagonism toward capsaicin (in words)” value on hTRPV1 [1] is “reasonable antagonism”. One may read the pIC50 as −log10 of the IC50, conventionally taken in molar units. Low values mean a high IC50, high ones a low IC50. `CC(C(=O)NCc1ccc(C(F)(F)F)nc1-c1ccc(F)cc1)c1ccc(NS(C)(=O)=O)c(F)c1` (stereo not drawn) [Compound 9]: the “antagonism toward pH (in words)” value at hTRPV1 [2] is given as “moderate antagonism”. The “antagonism toward NADA (in words)” value on hTRPV1 [3] was “excellent antagonism”. In addition, the “anti-allodynic efficacy (limited efficacy)” value in experiment [4] is on record as 53 % MPE. On hTRPV1 [5], this compound had a pIC50 of 7.59. The “antagonism toward heat (in words)” value on hTRPV1 [5] (activator heat) is reported as “moderate antagonism”. Also, the “fold increase in potency compared to 8” value at hTRPV1 [1] (Ki(CAP) relative to parent 8) turned out to be 16 fold. On hTRPV1 [1], the “antagonism toward capsaicin (in words)” value is “excellent antagonism”. In the case of `CC(C(=O)NCc1ccc(C(F)(F)F)nc1-c1cccc(F)c1)c1ccc(NS(C)(=O)=O)c(F)c1` (stereo not drawn) [Compound 10], the “fold increase in potency compared to 8” value on hTRPV1 [1] (Ki(CAP) relative to parent 8) is on record as 5 fold.

For the compound `CC(C(=O)NCc1ccc(C(F)(F)F)nc1-c1ccccc1F)c1ccc(NS(C)(=O)=O)c(F)c1` (stereo not drawn) [Compound 11], at hTRPV1 [1] (Ki(CAP) relative to parent 8), the “fold reduction in potency compared to 8” value was found to be 10 fold. On to `CC(C(=O)NCc1ccc(C(F)(F)F)nc1-c1ccc(Cl)cc1)c1ccc(NS(C)(=O)=O)c(F)c1` (stereo not drawn) [Compound 12], for which the “fold increase in potency compared to 8” value on hTRPV1 [1] (Ki(CAP) relative to parent 8) is recorded as 9 fold.

As to `CC(C(=O)NCc1ccc(C(F)(F)F)nc1-c1cccc(Cl)c1)c1ccc(NS(C)(=O)=O)c(F)c1` (stereo not drawn) [Compound 13], the “fold increase in potency compared to 8” value on hTRPV1 [1] (Ki(CAP) relative to parent 8) was 13 fold. Turning to `COc1ccc(-c2nc(C(F)(F)F)ccc2CNC(=O)C(C)c2ccc(NS(C)(=O)=O)c(F)c2)cc1` (stereo not drawn) [Compound 14], the “fold increase in potency compared to 8” value at hTRPV1 [1] (Ki(CAP) relative to parent 8) was 6 fold. As to `CC(C(=O)NCc1ccc(C(F)(F)F)nc1-c1ccc(N(C)C)cc1)c1ccc(NS(C)(=O)=O)c(F)c1` (stereo not drawn) [Compound 15], the “fold increase in potency compared to 8” value at hTRPV1 [1] (Ki(CAP) relative to parent 8) came to 2 fold. Still for that read-out and setting: in the case of `CC(C(=O)NCc1ccc(C(F)(F)F)nc1-c1ccc(C(C)(C)C)cc1)c1ccc(NS(C)(=O)=O)c(F)c1` (stereo not drawn) [Compound 16] it was 13 fold.

For `CC(C(=O)NCc1ccc(C(F)(F)F)nc1-c1cccc(NS(C)(=O)=O)c1)c1ccc(NS(C)(=O)=O)c(F)c1` (stereo not drawn) [Compound 17], on hTRPV1 [1], the “antagonism toward capsaicin (in words)” value is reported as “lack of activity”. With `CC(C(=O)NCc1ccc(C(F)(F)F)nc1-c1ccc(F)c(Cl)c1)c1ccc(NS(C)(=O)=O)c(F)c1` (stereo not drawn) [Compound 18], the “fold increase in potency compared to 8” value at hTRPV1 [1] (Ki(CAP) relative to parent 8) was “ca. 30 fold”.

Take `Cc1cc(-c2nc(C(F)(F)F)ccc2CNC(=O)C(C)c2ccc(NS(C)(=O)=O)c(F)c2)ccc1F` (stereo not drawn) [Compound 19]: the “antagonism toward capsaicin (in words)” value at hTRPV1 [1] was “retained high potencies”. Same read-out and setting: in the case of `CC(C(=O)NCc1ccc(C(F)(F)F)nc1-c1ccc(Cl)c(Cl)c1)c1ccc(NS(C)(=O)=O)c(F)c1` (stereo not drawn) [Compound 20] it was “retained high potencies”.

For the compound `CC(C(=O)NCc1ccc(C(F)(F)F)nc1-c1cccs1)c1ccc(NS(C)(=O)=O)c(F)c1` (stereo not drawn) [Compound 26], on hTRPV1 [1] (Ki(CAP) relative to parent 8), the “fold increase in potency compared to 8” value was “ca. 20 fold”. As to `CC(C(=O)NCc1ccc(C(F)(F)F)nc1-c1ccsc1)c1ccc(NS(C)(=O)=O)c(F)c1` (stereo not drawn) [Compound 27], the “antagonism toward capsaicin (in words)” value at hTRPV1 [1] is listed as “potent antagonist”. Consider `CC(C(=O)NCc1ccc(C(F)(F)F)nc1-c1ccco1)c1ccc(NS(C)(=O)=O)c(F)c1` (stereo not drawn) [Compound 28], for which the “antagonism toward capsaicin (in words)” value at hTRPV1 [1] is on record as “higher potency than phenyl derivative 8”. For the compound `CC(C(=O)NCc1ccc(C(F)(F)F)nc1-c1ccoc1)c1ccc(NS(C)(=O)=O)c(F)c1` (stereo not drawn) [Compound 29], the “antagonism toward capsaicin (in words)” value on hTRPV1 [1] was “higher potency than phenyl derivative 8”. For the compound `CC(C(=O)NCc1ccc(C(F)(F)F)nc1-n1ccnc1)c1ccc(NS(C)(=O)=O)c(F)c1` (stereo not drawn) [Compound 30], on hTRPV1 [1], the “antagonism toward capsaicin (in words)” value was “weak antagonist”. `CC(C(=O)NCc1ccc(C(F)(F)F)nc1Cc1ccccc1)c1ccc(NS(C)(=O)=O)c(F)c1` (stereo not drawn) [Compound 35]: the “antagonism toward capsaicin (in words)” value at hTRPV1 [1] is listed as “weak antagonist”. With `CC(C(=O)NCc1ccc(C(F)(F)F)nc1CCc1ccccc1)c1ccc(NS(C)(=O)=O)c(F)c1` (stereo not drawn) [Compound 36], the “antagonism toward capsaicin (in words)” value on hTRPV1 [1] is given as “dramatic increase in antagonism”.
